Measured values: article PMC9312238, “Novel Organoselenium Redox Modulators with Potential Anticancer, Antimicrobial, and Antioxidant Activities” (Antioxidants, 2022)
≈ marks a conversion by molar mass, not a printed value.

Tests used:
Candida albicans [1] = test: microbe, parasite or virus in culture; format: cell-based; design: C. albicans A% (activity index): concentration or dose not given beside the values
Method: (§1) The antimicrobial activities of the OSe compounds were evaluated against C. albicans yeast, as well as E. coli and S. bacteria, employing the agar well diffusion assay. Furthermore, the MICs (in µM) were determined by the microdilution method according to the reported protocol. More details are in the Supporting Information.
Compounds were evaluated for their antimicrobial activity against the Gram-negative bacteria Escherichia coli (E. coli) and the Gram-positive bacteria Staphylococcus aureus (S. aureus), as well as the Candida albicans (C. albicans) fungal strain, using the agar diffusion assay. Ampicillin and clotrimazole were used as standards. Indeed, the antimicrobial properties of the OSe compounds were also obtained from the activity index percentage (A%) according to Equation (2). (2) A%=Zone of inhibition by test compound diametre/Zone of inhibition by standard diametre×100 . […]
(§2) 1.1.1. The antimicrobial activity
The antimicrobial activities of the OSe compounds were evaluated against C. albicans yeast as well as E. coli gram-negative and S. aureus gram-positive bacteria employing the agar well diffusion assay. […]
compound by dissolving in DMSO. […]
Petri dishes, which in turn contain a nutrient media (agar 20 g, peptone 5 g, and beef extract 3 g) seeded with the dedicated strain. Incubation lasted for 24 h at 36
(§3) Furthermore, the MICs (in µM) were determined by the microdilution method according to the reported protocol. […]
(§4) Inhibition%= (Ablank-Asample)/(Ablank)*100. (1)

Candida albicans [2] = test: MIC by microdilution, C. albicans; format: cell-based; settings: Candida albicans; microdilution; read-out: MIC (μM) C. albicans
Method: as §1, with “Information. […]” for “Information.”
as §2
The antimicrobial activities of the OSe compounds were evaluated against C. albicans yeast as well as E. coli gram-negative and S. aureus gram-positive bacteria employing the agar well diffusion assay. Briefly, a concentration of 1 mM was prepared for each compound by dissolving in DMSO. Paper discs of standard size […] were steri-lized in an autoclave and soaked in 20 µL of the test compounds, and placed in the Petri dishes, which in turn contain a nutrient media (agar 20 g, peptone 5 g, and beef extract 3 g) seeded with the dedicated strain. Incubation lasted for 24 h at 36
as §3, §4

[3] = DPPH radical scavenging bioassay; format: biochemical
Source text: (§5) The antioxidant activity was estimated by ABTS and DPPH bioassays, according to the reported literature method. More details are in the Supplementary Materials.
(§6) Recently, OSe compounds were thoroughly used as redox modulators to control many complicated diseases (e.g., cancer and neurodegenerative diseases). The DPPH and ABTS bioassays were extensively used as rapid tools for estimating the antioxidant potency of OSe compounds [50, 51]. Ascorbic acid was used as a standard control, and the antioxidant potency was measured by the ability of the compounds to decolorize the characteristic colors of the ABTS^. and DPPH^. radicals by following the colorimetric decline in absorbance at 734 and 517 nm, respectively (Figure 2).
Figure 2 Evaluation of the antioxidant properties of the OSe compounds employing the ABTS and DPPH assays. All measurements are mean ± SD. In the DPPH assay: absorbance was read after 0.5 h of mixing […] of DPPH with […] of OSe compounds (1 mM, MeOH) at 517 nm. In the ABTS assay: […] of each OSe compound (1 mM, phosphate-buffered methanol) was mixed with the ABTS solution (60 mM), and absorbance was monitored at 734 nm. […]
1.1.1. The antioxidant activity
The hydrogen atom or electron donation ability of the corresponding compounds was measured by estimating the bleaching of the purple color of a methanolic solution of DPPH [29]. This spectrophotometric assay uses stable DPPH. reagent. The sample was prepared by adding […] of the OSe compounds (1 mM in methanol) to […] DPPH in methanol. After 30 min of incubation in the dark, the absorbance was read against a blank at 517 nm. Ascorbic acid (vitamin C) and ebselen were used as standard antioxi-dants (positive control). A blank sample was run without DPPH. A negative control sam-ple was run using methanol instead of the sample. The radical scavenging activity was calculated using the following equation:
as §4

[4] = ABTS radical scavenging bioassay; format: biochemical
Source text: as §5, §6
Figure 2 Evaluation of the antioxidant properties of the OSe compounds employing the ABTS and DPPH assays. All measurements are mean ± SD. In the DPPH assay: absorbance was read after 0.5 h of mixing […] of DPPH with […] of OSe compounds (1 mM, MeOH) at 517 nm. In the ABTS assay: […] of each OSe compound (1 mM, phosphate-buffered methanol) was mixed with the ABTS solution (60 mM), and absorbance was monitored at 734 nm.
The antioxidant activity of the investigated compounds was assessed using 2,2’-az-ino-bis(3-ethylbenzothiazoline-6-sulphonic acid (ABTS) method. The radical cation derived from ABTS was prepared by the reaction of 60 mM ABTS solution with 0.3 M manganese dioxide solution in 0.1M phosphate buffer, pH 7. Then, the mixture was shaken, centrifuged, filtered, and the absorbance (Acontrol) of the resulting green-blue solu-tion (ABTS radical solution) was measured at wavelength 734 nm. Then, […] of 1 mg/ml test compound in phosphate-buffered methanol was added. The absorbance (Atest) was measured. The reduction in color intensity was expressed as % inhibition. The % inhibi-tion for each compound is calculated from the following equation
Inhibition% = (Acontrol-Asample)/(Acontrol)*100
Ascorbic acid (vitamin C) was used as a standard antioxidant (positive control). A blank sample was run without ABTS and using MeOH/phosphate buffer (1:1) instead of the sample. A negative control sample was run with MeOH/phosphate buffer (1:1) instead

[5] = concentration decreasing absorbance by 50%

Compound | zone of inhibition at 20 µM (Candida albicans [1]; Candida albicans, inhibition zone diameter, six-mm disks soaked with 20 μM of compound, read-out: C. albicans IZD (mm)) [mm] | C. albicans A% (activity index) (Candida albicans [1]; zone of test compound / zone of standard (clotrimazole) x 100) [%] | MIC (Candida albicans [2]) [µM] | radical scavenging activity, DPPH assay ([3]; compound 1 mM in MeOH, read after 0.5 h at 517 nm) [%] | IC50 [3, 5] [µM] | radical scavenging activity, ABTS assay ([4]; compound 1 mM in phosphate-buffered methanol, 734 nm) [%] | IC50 [4, 5] [µM]
Clc1ccccc1C(c1ccccc1)(c1ccccc1)n1ccnc1 [Clotrimazole, clotrimazole, reference compound] | 24 | 100 | 2 (≈ 0.69 µg/mL) |  |  |  | 
O=C1O[C@H]([C@@H](O)CO)C(O)=C1O [Vitamin C, Ascorbic acid, reference compound] |  |  |  | 95 | 19.18 ± 0.13 | 88 | 28.16 ± 0.19
